Experiments:
Type in all cases: cell-based
T-47D cells = assay: Inhibition of cell proliferation in T-47D cells (CCK-8); details: Homo sapiens, T47D, 144 h, 6 days treatment, CCK-8 cell viability
Method in brief: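 Viability by CCK-8 after a 6-day, 37 °C/5% CO2 exposure of T-47D cells (3,000/well, RPMI-1640 + 10% FBS) to graded PROTAC concentrations. Inhibition rates gave the IC50.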

MCF-7 cells = assay: Inhibition of cell proliferation in MCF-7 cells (CCK-8); details: Homo sapiens, MCF7, 144 h, MCF-7 cell proliferation, 6 days treatment
Method in brief: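 IC50 from CCK-8 viability-based inhibition after 6-day treatment of MCF-7 cells (800 cells/well, 10% FBS DMEM, 37 °C, 5% CO2) with serially varied compound concentrations.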

ERα [1] = biological target: T1, ERα (Homo sapiens, UniProt P03372); assay: ERα degradation in T-47D cells (Western blot); details: 4 hours
T1 sequence (P03372 1-595): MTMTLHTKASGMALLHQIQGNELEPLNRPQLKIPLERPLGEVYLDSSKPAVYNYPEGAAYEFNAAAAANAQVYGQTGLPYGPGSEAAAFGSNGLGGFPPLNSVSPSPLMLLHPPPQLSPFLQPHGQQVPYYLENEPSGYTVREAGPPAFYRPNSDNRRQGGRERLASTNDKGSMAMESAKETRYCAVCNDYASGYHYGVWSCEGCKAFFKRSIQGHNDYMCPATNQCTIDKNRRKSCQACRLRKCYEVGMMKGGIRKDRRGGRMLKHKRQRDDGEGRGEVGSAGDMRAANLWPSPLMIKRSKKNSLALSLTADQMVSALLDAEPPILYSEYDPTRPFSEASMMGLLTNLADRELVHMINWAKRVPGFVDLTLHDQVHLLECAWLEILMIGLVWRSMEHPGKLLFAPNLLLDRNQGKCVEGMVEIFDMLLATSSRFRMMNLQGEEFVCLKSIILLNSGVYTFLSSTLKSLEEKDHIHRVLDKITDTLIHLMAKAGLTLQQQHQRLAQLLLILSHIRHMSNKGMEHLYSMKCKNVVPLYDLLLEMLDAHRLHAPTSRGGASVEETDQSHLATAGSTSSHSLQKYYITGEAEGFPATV
Method: (§1) Western blotting: The total protein concentration in the collected cell lysate supernatant was determined using the BCA protein concentration assay kit (enhanced) (P0009, Beyotime). Based on the total protein concentration determined by BCA, the protein concentration was adjusted to 1 µg/µL using RIPA lysis buffer and 5× SDS-PAGE protein loading buffer (MB01015, GenScript). The protein was denatured in a 95°C water bath for 5 minutes. After denaturation, the condensed water on the tube wall was collected by centrifugation and used as the loading sample. 20µL of the loading sample (20 µg of total protein) was added to the sample well of a 12% precast gel (M00669, GenScript). Electrophoresis was performed at 100 V for 20 minutes, followed by switching to 150 V for 40 minutes. After electrophoresis, the proteins from the SDS-PAGE gel were transferred to a PVDF membrane at a constant voltage of 100 V for 60 minutes. After transfer, the PVDF membrane corresponding to the ERα protein and internal reference protein was cut and incubated in 1× QµickBlock blocking buffer (P0252, Beyotime) for 30 minutes at room temperature on a shaker. After blocking, the ERα primary antibody (1:1000, 8644S, CST) was added and incubated overnight at 4°C on a shaker. The PVDF membrane was washed three times with 1× TBST buffer for 5 minutes each. Rabbit IgG (H+L) secondary antibody (1:7500, SA5-35571, Invitrogen) was added and incubated for 1 hour at room temperature on a shaker. The membrane was then washed again three times with 1× TBST buffer for 5 minutes each. Finally, the membrane was imaged using a dual-color infrared laser imaging system (Odyssey DLx, LICOR). Protein maps were analyzed for grayscale value using Image Studio Lite software. The grayscale correction value for each sample was calculated using the formula: grayscale correction value = grayscale value of the target protein / grayscale value of the corresponding internal reference. Then the grayscale correction values of the compound group and the control group were compared to calculate the degradation rate of the compound. Table 4 Degradation rate of ERα by PROTAC compounds of the present invention and positive control in MCF-7 cells (%)
Test Example 5 Degradation of ERα by the PROTAC compounds disclosed in the present invention in T-47D cells
T-47D (ATCC) cells were cultured in PRMI-1640 medium (30-2001, ATCC) containing 10% FBS (10099141C, Gibco) at 37°C and 5% CO2 until they entered the logarithmic growth phase. T-47D cells were seeded at a density of 3×10^5 cells/well in a 6-well plate and incubated at 37°C, 5% CO2 for 24 hours. After cell attachment, 1 µL of compound dimethyl sulfoxide solution (final concentration 0.15-1000 nM) was added and incubated for another 4 hours at 37°C, 5% CO2 incubator. After 4 hours, the culture medium was discarded, and each well was washed once with 1 mL of pre-chilled 1× DPBS. The cells were then lysed with 50 µL of RIPA lysis buffer (P0013B, Beyotime) and 1× protease inhibitor cocktail (P1005, Beyotime). After incubation on ice for 20 minutes, the cells were centrifuged at 14,000 g at 4°C for 30 minutes. The supernatant was carefully collected and analyzed for ERα protein levels by immunoblotting. Table 5 Degradation rate of ERα by PROTAC compounds of the present invention and positive control sample in T-47D cells (%)

ERα [2] = biological target: T1, ERα; assay: ERα degradation in MCF-7 cells (Western blot); design: host or cells: MCF-7; details: 4 hours
Method: Test Example 4 Effect of PROTAC Compounds Disclosed in the Present Invention on ERα Degradation in MCF-7 Cells
MCF-7 (ATCC) cells were cultured in DMEM medium (11995-065, Gibco) containing 10% FBS (10099141C, Gibco) at 37°C and 5% CO2 until they entered the logarithmic growth phase. MCF-7 cells were plated at a density of 3×10^5 cells/well in a 6-well plate and incubated at 37°C, 5% CO2 for 24 hours. After cell attachment, 1µL of compound in dimethyl sulfoxide (final concentration 0.15-1000nM) was added and incubated for another 4 hours at 37°C, 5% CO2 incubator. After 4 hours, the culture medium was discarded, and each well was washed once with 1 mL of pre-chilled 1× DPBS. The cells were then lysed with 50 µL of RIPA lysis buffer (P0013B, Beyotime) and 1× protease inhibitor cocktail (P1005, Beyotime). After incubation on ice for 20 minutes, the cells were centrifuged at 14,000 g at 4°C for 30 minutes. The supernatant was carefully collected and analyzed for ERα protein levels by immunoblotting.
as §1

| SMILES | IC50 (T-47D cells) | IC50 (MCF-7 cells) | Degradation rate of ERα in T-47D cells (%) (ERα [1]; 1nM) | Degradation rate of ERα in T-47D cells (%) (ERα [1]; 10nM) | Degradation rate of ERα in MCF-7 cells (%) (ERα [2]; 1nM) | Degradation rate of ERα in MCF-7 cells (%) (ERα [2]; 10nM) |
| --- | --- | --- | --- | --- | --- | --- |
| Cn1c(=O)n(C2CCC(=O)NC2=O)c2cc3c(cc21)OC1(CC3)CCN(C[C@H]2CC[C@@H](OC3CCN(c4ccc([C@@H]5c6ccc(O)cc6CC[C@@H]5c5ccccc5)cc4)CC3)CC2)CC1 (stereo partly drawn) [ER-P-65, 3-(1'-(((1S,4S)-4-((1-(4-((1R,2S)-6-hydroxy-2-phenyl-1,2,3,4-tetrahydronaphthalen-1-yl)phenyl)piperidin-4-yl)oxy)cyclohexyl)methyl)-3-methyl-2-oxo-2,3,7,8-tetrahydro-1H-spiro[benzopyrano[6,7-d]imidazole-6,4'-piperidin]-1-yl)piperidine-2,6-dione] | 7.34 nM | 261 nM | 20% | 77% | 21% | 62% |
| C[C@@H]1Cc2cc(O)ccc2C(c2c(F)cc(N3CCC(C(=O)N4CCC(N5CCC6(CC5)COc5c6ccc6c5n(C)c(=O)n6C5CCC(=O)NC5=O)CC4)CC3)cc2F)N1CC(F)F (stereo partly drawn) [ER-P-30, 3-(1'-(1-(1-(4-((3R)-2-(2,2-difluoroethyl)-6-hydroxy-3-methyl-1,2,3,4-tetrahydroisoquinolin-1-yl)-3,5-difluorophenyl)piperidine-4-carbonyl)piperidin-4-yl)-1-methyl-2-oxo-1,2-dihydro-3H,7H-spiro[benzofuro[6,7-d]imidazole-6,4'-piperidin]-3-yl)piperidine-2,6-dione] | 2.42 nM | 4960 nM | 47% | 17% | 42% | 14% |
| O=C1CCC(Nc2ccc3c(c2)COC[C@H]2CN(C[C@H]4CC[C@@H](OC5CCN(c6ccc([C@@H]7c8ccc(O)cc8CC[C@@H]7c7ccccc7)cc6)CC5)CC4)CCN32)C(=O)N1 (stereo partly drawn) [ER-P-34, 3-(((R)-3-(((1S,4S)-4-((1-(4-((1R,2S)-6-hydroxy-2-phenyl-1,2,3,4-tetrahydronaphthalen-1-yl)phenyl)piperidin-4-yl)oxy)cyclohexyl)methyl)-1,2,3,4,4a,5-hexahydro-7H-benzo[e]pyrazino[2,1-c][1,4]oxazepin-9-yl)amino)piperidine-2,6-dione] | 26.9 nM | 2120 nM | 15% | 24% | 5% | 17% |
| O=C1CCC(Nc2ccc3c(c2)OC2(CC3)CCN(C[C@H]3CC[C@@H](OC4CCN(c5ccc([C@@H]6c7ccc(O)cc7CC[C@@H]6c6ccccc6)cc5)CC4)CC3)CC2)C(=O)N1 (stereo partly drawn) [ER-P-43, 3-((1'-(((1S,4s)-4-((1-(4-((1R,2S)-6-hydroxy-2-phenyl-1,2,3,4-tetrahydronaphthalen-1-yl)phenyl)piperidin-4-yl)oxy)cyclohexyl)methyl)spiro[chromane-2,4'-piperidin]-7-yl)amino)piperidine-2,6-dione] | 95.1 nM | 1070 nM | 10% | -1% | -13% | -19% |
| Cn1c(=O)n(C2CCC(=O)NC2=O)c2cc3c(cc21)C1(CCN(C[C@H]2CC[C@@H](OC4CCN(c5ccc([C@@H]6c7ccc(O)cc7CC[C@@H]6c6ccccc6)cc5)CC4)CC2)CC1)CO3 (stereo partly drawn) [ER-P-55, 3-(1'-(((1S,4S)-4-((1-(4-((1R,2S)-6-hydroxy-2-phenyl-1,2,3,4-tetrahydronaphthalen-1-yl)phenyl)piperidin-4-yl)oxy)cyclohexyl)methyl)-1-methyl-2-oxo-1,2-dihydro-3H,6H-spiro[benzofuro[5,6-d]imidazole-7,4'-piperidin]-3-yl)piperidine-2,6-dione] | 0.18 nM | 113 nM | 62% | 87% | 35% | 69% |
| Cn1c(=O)n(C2CCC(=O)NC2=O)c2ccc3c(c21)C1(CCN(C[C@H]2CC[C@@H](OC4CCN(c5ccc([C@@H]6c7ccc(O)cc7CC[C@@H]6c6ccccc6)cc5)CC4)CC2)CC1)CO3 (stereo partly drawn) [ER-P-66, 3-(1'-(((1S,4s)-4-((1-(4-((1R,2S)-6-hydroxy-2-phenyl-1,2,3,4-tetrahydronaphthalen-1-yl)phenyl)piperidin-4-yl)oxy)cyclohexyl)methyl)-1-methyl-2-oxo-1,2-dihydro-3H,7H-spiro[benzofuro[4,5-d]imidazole-8,4'-piperidin]-3-yl)piperidine-2,6-dione] | 14 nM | 4100 nM | 18% | 49% | 6% | 30% |
| O=C1CC[C@H](NC(=O)c2ccc3c(c2F)OCC32CCN(CC3CCN(c4ccc([C@@H]5c6ccc(O)cc6CC[C@@H]5c5ccccc5)cc4)CC3)CC2)C(=O)N1 [ER-P-42, N-((S)-2,6-dioxopiperidin-3-yl)-7-fluoro-1'-((1-(4-((1R,2S)-6-hydroxy-2-phenyl-1,2,3,4-tetrahydronaphthalen-1-yl)phenyl)piperidin-4-yl)methyl)-2H-spiro[benzofuran-3,4'-piperidine]-6-carboxamide] | 10.4 nM | 4500 nM | -27% | -28% | -20% | -3% |

Reference: EP4722219A1 (Gan & Lee Pharmaceuticals Co., Ltd., priority 2023, dated 2024)
